According to patent publication US11819569B2, “Treating inflammation with inhaled aspirin” (VECTURA INC., priority 2013, dated 2023):
Like-named read-outs stand apart in the source and are kept apart here.

Experiments:
[1] = cited from earlier work
[2] = cited from earlier work; remark: listed apart in the source
[3] = oral solution of 650 mg, four male subjects; cited from earlier work
[4] = cited from earlier work; remark: listed apart in the source
[5] = Pharmacokinetic studies after oral administration of ASA (cited Dressman et al.); details: extrapolated from linear pharmacokinetics, dose not stated
[6] = after oral administration of ASA
[7] = metabolite after oral administration of ASA

expected peak circulating plasma level [5] [µg/mL]	Structure (SMILES)	loss or inactivation of the oral dosage due to the first pass effect in the gut and liver ([1]; oral administration)	fraction of the oral dose that is bioavailable ([1]; taken orally, first pass effect)	elimination half-life [2, 6] [h]	time to peak plasma levels [2, 6]	pharmacokinetic behavior over dosage range ([2]; dosage range from 30-400 mg)	share of the dose that reached the peripheral circulation intact (AUC oral vs intravenous) [3] [%]	vascular events prevented ([4]; Dutch TIA Study, any dose above 30 mg daily, oral) [%]	increase of major gastrointestinal and extracranial bleeds ([4]; oral aspirin, studies used dosages of 325 mg)	elimination half-life [2, 7] [h]	period over which plasma levels increase following administration of ASA [2, 7]
–	CC(=O)Oc1ccccc1C(=O)O [aspirin, acetylsalicylic acid]	approximately ⅔	about one to two-thirds	0.25 to 0.333	about 20 minutes	linear	68	13	over 50%	–	–
~10	O=C(O)c1ccccc1O [salicylate, salicylic acid]	–	–	–	–	–	–	–	–	2 to 3	about 45 minutes
